Molecules are shown by their SMILES.

A short description of the data set: Solubility of sirolimus in solvents and dispersion media. It is filed as physicochemical. As to the method:
Solution 524 is a homogeneous mixture in which therapeutic substance 112 dissolves within a solvent or a solvent mixture. In one embodiment, solution 524 includes a high-capacity solvent 528 which is an organic solvent that has a high capacity to dissolve therapeutic substance 112. High capacity as utilized herein is defined as an ability to dissolve therapeutic substance 112 at concentrations greater than 500 mg of substance per milliliter of solvent. Examples of high capacity drug dissolving solvents for sirolimus and similar substances include but are not limited to tetrahydrofuran (THF), di-chloromethane (DCM), chloroform, and di-methyl-sulfoxide (DMSO). In addition to the high-capacity solvent, solution 524 may include an excipient 526 in order to assist in drug elution. In one embodiment, excipient 526 may be a surfactant such as but not limited to sorbitan fatty acid esters such as sorbitan monooleate and sorbitan monolaurate, polysorbates such as polysorbate 20, polysorbate 60, and polysorbate 80, cyclodextrins such as 2-hydroxypropyl-beta-cyclodextrin and 2,6-di-O-methyl-beta-cyclodextrin, sodium dodecyl sulfate, octyl glucoside, and low molecular weight poly(ethylene glycol)s. In another embodiment, excipient 526 may be a hydrophilic agent such as but not limited to salts such as sodium chloride and other materials such as urea, citric acid, and ascorbic acid. In yet another embodiment, excipient 526 may be a stabilizer such as but not limited to butylated hydroxytoluene (BHT). Depending on the desired drug load, a low capacity solvent can also be chosen for its reduced solubility of therapeutic substance 112. Low capacity is defined as an ability to dissolve therapeutic substance 112 at concentrations typically below 500 mg of drug per milliliter solvent. Examples of low capacity drug dissolving solvents for sirolimus and similar substances include but are not limited to methanol, ethanol, propanol, acetonitrile, ethyl lactate, acetone, and solvent mixtures like tetrahydrafuran/water (9:1 weight ratio). […]

On to `CO[C@H]1C[C@@H]2CC[C@@H](C)[C@@](O)(O2)C(=O)C(=O)N2CCCC[C@H]2C(=O)O[C@H]([C@H](C)C[C@@H]2CC[C@@H](O)[C@H](OC)C2)CC(=O)[C@H](C)/C=C(\C)[C@@H](O)[C@@H](OC)C(=O)[C@H](C)C[C@H](C)/C=C/C=C/C=C/1C` [sirolimus], for which the “solubility in supercritical carbon dioxide” value (SCCO2) is on record as “low capacity”. For the same compound, the solubility in hexane result (hexane) is listed as “insoluble”. Further, under “water”, the solubility in water entry is “insoluble”.

These data come from patent US20120067455A1, “Apparatus and Methods for Loading a Drug Eluting Medical Device” (Medtronic Vascular, Inc., priority 2010, published 2012).
